Literature values in patent US20170290285A1, “HIGH REBAUDIOSIDE-C PLANT VARIETAL AND COMPOSITIONS EXTRACTED THEREFROM WITH HIGH REBAUDIOSIDE-C AND TOTAL STEVIOL GLYCOSIDE CONTENT” (GLG Life Tech Corporation, priority 2014, published 2017).

Legend:
[1] = heating at high temperature, cooking or barbecuing
[2] = for Relative sweetness: Table 1

## C[C@H](CC[C@@H](O[C@@H]1O[C@H](CO[C@@H]2O[C@H](CO)[C@@H](O)[C@H](O)[C@H]2O)[C@@H](O)[C@H](O)[C@H]1O[C@@H]1O[C@H](CO)[C@@H](O)[C@H](O)[C@H]1O)C(C)(C)O)[C@H]1CC[C@@]2(C)[C@@H]3CC=C4[C@@H](CC[C@H](O[C@@H]5O[C@H](CO[C@@H]6O[C@H](CO)[C@@H](O)[C@H](O)[C@H]6O)[C@@H](O)[C@H](O)[C@H]5O)C4(C)C)[C@]3(C)[C@H](O)C[C@]12C [Mogroside V]
[1]
  effect of heating on flavor: does not affect the flavor
[2]; versus sugar, b159
  sweetness, times that of sugar: about 300 times

## Rubusoside
[2]
  Relative sweetness: 110

## Rebaudioside C
[2]; versus sugar, list b13-b15
  sweetness, × of sugar: 150-200 × of sugar

## C=C1C[C@@]23CC[C@H]4[C@@](C)(CCC[C@@]4(C)C(=O)[O-])[C@@H]2CC[C@]1(O[C@@H]1O[C@@H](CO)[C@@H](O)[C@H](O)[C@@H]1O[C@@H]1O[C@@H](CO)[C@@H](O)[C@H](O)[C@@H]1O)C3.[Na+] [Stevlolbioside]
other
  Solubility in water, %: 0.03%
[2]
  Relative sweetness: 90
